From patent US8742082B2, “Compositions and methods for influencing satiety, lipid metabolism, and fat utilization” (Nestec S.A., priority 2008, dated 2014)

Key:
Type in all cases: in vivo
[1] = tested on: Adiponectin; test: Real-time PCR gene expression in peripheral tissues: adiponectin; conditions: C57bl6j mice, high fat diet, 100 mg/kg/body weight in diet, 5 weeks
Method: (§1) The expression of 45 genes was measured by real-time PCR in peripheral tissues to identify genes that were differentially expressed in response to oral administration of oleoylethanolamide (OEA) or a non-hydrolysable OEA analog (KDS 5104), which affect satiety, lipid metabolism, fat utilization, food intake, and body fat mass.
(§2) Animals, diet, and experimental design. Adult male C57bl6j mice purchased at 8 weeks of age were individually housed and maintained ad libitum on high fat diet and water for 2 weeks. Seven mice were randomly allocated in 3 groups and fed with a high fat diet (lipids represented 50% of daily energy) for 2 weeks. For one kilogram, the composition of the high fat diet was: 235 g casein, 201 g saccharose, 3.5 g L-cystine, 85 g starch, 116 g maltodextrin, 60 g cellulose, 12 g vitamins mix (AIN-93M, UPAE, Jouy-en-Josas, France), 51.5 g mineral mix (AIN-93Vx, UPAE, Jouy-en-Josas, France), and 236 g lard. Then, either OEA or KDS 5104 was added to the diet at a concentration of 100 mg/kg/body weight. The mice were kept under treatment for 5 weeks.
(§3) Sampling. At the end of the experimental period, mice were sacrificed by blood drawing (cardiac puncture) after anesthesia with isoflurane. Plasma was obtained by centrifugation (1,000 g for 10 min at 4° C.). Mesenteric, epididymal, inguinal and peritoneal adipose depots, as well as liver, stomach, small intestine mucosa, pancreas, and gastrocnemian muscle were removed and frozen into liquid nitrogen. Plasma, urine, feces, and organ samples were kept at −80° C. until analysis.
(§4) RNA extraction and gene expression. Total RNA from liver, intestine mucous membrane, adipose tissues, gastrocnemian muscle, pancreas and stomach were extracted with TRIzol reagent (Invitrogen, Carlsbad, USA) according to the manufacturer's instruction. The RNA concentration was determined on nanodrop from the absorbance at 260 nm. […] Real-time quantitative PCR (RT-qPCR) were performed on cDNA obtained as described above using a high through put system (Biomek 3000, Beckman & Coulter, Fullerton, USA) and a Lightcycler 480 (Roche/Hitachi, Basel, Switzerland) with SYBR Green Master mix+kit (Eurogentec, Philadelphia, USA). […] Values were expressed as ratio of RNA levels relative to control mice (diets with 0 mg of OEA/kg/body weight) using ΔΔ(Ct) (Livak K J & Schmittgen T D, 2001, Methods 25:402-8). Gene expression of the following genes was measured (abbreviation and GenBank Accession shown in parentheses).
Statistical analysis. […] Daily food intake was analyzed using two-way ANOVA on Statview software. […] For statistical analysis of the gene expression data, values were calculated relative to 18S expression for each mouse and gene.

[2] = tested on: Ghrelin; test: Real-time PCR gene expression in peripheral tissues: ghrelin; conditions: stomach; C57bl6j mice, high fat diet, 100 mg/kg/body weight in diet, 5 weeks
Method: as §1
(§5) Animals, diet, and experimental design. Adult male C57bl6j mice purchased at 8 weeks of age were individually housed and maintained ad libitum on high fat diet and water for 2 weeks. Seven mice were randomly allocated in 3 groups and fed with a high fat diet (lipids represented 50% of daily energy) for 2 weeks. […]
as §4, with “Total RNA from liver, intestine mucous membrane, adipose tissues, gastrocnemian muscle, pancreas and stomach were extracted with TRIzol reagent (Invitrogen, Carlsbad, USA) according to the manufacturer's instruction.” left out, “parentheses). […]” for “parentheses).”

[3] = tested on: G protein coupled receptor 119 (GPR 119); test: Real-time PCR gene expression in peripheral tissues: GPR119; conditions: proximal intestine; C57bl6j mice, high fat diet, 100 mg/kg/body weight in diet, 5 weeks
Method: as §1, §5
as §4, with “Total RNA from liver, intestine mucous membrane, adipose tissues, gastrocnemian muscle, pancreas and stomach were extracted with TRIzol reagent (Invitrogen, Carlsbad, USA) according to the manufacturer's instruction.” left out, “parentheses). […]” for “parentheses).”

[4] = tested on: Peroxisome proliferator activated receptor alpha (PPAR α); test: Real-time PCR gene expression in peripheral tissues: PPAR α; conditions: proximal intestine; C57bl6j mice, high fat diet, 100 mg/kg/body weight in diet, 5 weeks
Method: as §1, §5
as §4, with “Total RNA from liver, intestine mucous membrane, adipose tissues, gastrocnemian muscle, pancreas and stomach were extracted with TRIzol reagent (Invitrogen, Carlsbad, USA) according to the manufacturer's instruction.” left out, “parentheses). […]” for “parentheses).”

[5] = tested on: Cholescystokinin (CCK); test: Real-time PCR gene expression in peripheral tissues: CCK; conditions: proximal intestine; C57bl6j mice, high fat diet, 100 mg/kg/body weight in diet, 5 weeks
Method: as §1, §5
as §4, with “Total RNA from liver, intestine mucous membrane, adipose tissues, gastrocnemian muscle, pancreas and stomach were extracted with TRIzol reagent (Invitrogen, Carlsbad, USA) according to the manufacturer's instruction.” left out, “parentheses). […]” for “parentheses).”

[6] = tested on: Leptin; test: Real-time PCR gene expression in peripheral tissues: leptin; conditions: C57bl6j mice, high fat diet, 100 mg/kg/body weight in diet, 5 weeks
Method: as §1, §2, §3
(§6) RNA extraction and gene expression. Total RNA from liver, intestine mucous membrane, adipose tissues, gastrocnemian muscle, pancreas and stomach were extracted with TRIzol reagent (Invitrogen, Carlsbad, USA) according to the manufacturer's instruction. The RNA concentration was determined on nanodrop from the absorbance at 260 nm. Retro-transcription PCRs to synthesize cDNA were performed using an Applied Biosystem Thermal Cycler 2720 and Superscript II (Invitrogen, Carlsbad, USA) according to manufacturer's protocol. Real-time quantitative PCR (RT-qPCR) were performed on cDNA obtained as described above using a high through put system (Biomek 3000, Beckman & Coulter, Fullerton, USA) and a Lightcycler 480 (Roche/Hitachi, Basel, Switzerland) with SYBR Green Master mix+kit (Eurogentec, Philadelphia, USA). Primers for the selected genes were generated using online informatics assistance from the Lightcycler manufacturer (Roche). Databases used to identify the genes were (1) the NCBI database (GenBank) and (2) the IHOP (Information Hyperlinked over Protein) database (www.ihop-net.org/UniPub/iHOP/bng/). Values were expressed as ratio of RNA levels relative to control mice (diets with 0 mg of OEA/kg/body weight) using ΔΔ(Ct) (Livak K J & Schmittgen T D, 2001, Methods 25:402-8). Gene expression of the following genes was measured (abbreviation and GenBank Accession shown in parentheses).
(§7) Statistical analysis. […] Statistical analysis of physiological parameters and gene expression data was performed by one-way ANOVA on Statview software (SAS Institute, Cary, USA). Daily food intake was analyzed using two-way ANOVA on Statview software. Statistical significance was set up at the P<0.05 level, the P<0.01 level and the P<0.001 level. For statistical analysis of the gene expression data, values were calculated relative to 18S expression for each mouse and gene.

[7] = tested on: Cannabinoid receptor 1 (CB 1); test: Real-time PCR gene expression in peripheral tissues: CB1; conditions: C57bl6j mice, high fat diet, 100 mg/kg/body weight in diet, 5 weeks
Method: as §1, §2, §3, §6, §7

[8] = tested on: Fatty acid amide hydrolase (FAAH); test: Real-time PCR gene expression in peripheral tissues: FAAH; conditions: C57bl6j mice, high fat diet, 100 mg/kg/body weight in diet, 5 weeks
Method: as §1, §2, §3, §6, §7

[9] = tested on: N-acylsphingosine amidohydrolase-like (NAAA); test: Real-time PCR gene expression in peripheral tissues: NAAA; conditions: C57bl6j mice, high fat diet, 100 mg/kg/body weight in diet, 5 weeks
Method: as §1, §2, §3, §6, §7

[10] = tested on: Oleoylethanolamide synthase (OEA synthase); test: Real-time PCR gene expression in peripheral tissues: OEA synthase; conditions: proximal intestine; C57bl6j mice, high fat diet, 100 mg/kg/body weight in diet, 5 weeks
Method: as §1, §5
as §4, with “Total RNA from liver, intestine mucous membrane, adipose tissues, gastrocnemian muscle, pancreas and stomach were extracted with TRIzol reagent (Invitrogen, Carlsbad, USA) according to the manufacturer's instruction.” left out, “parentheses). […]” for “parentheses).”

[11] = tested on: Glucose transporter 4 (Glut 4); test: Real-time PCR gene expression in peripheral tissues: Glut 4; conditions: muscle; C57bl6j mice, high fat diet, 100 mg/kg/body weight in diet, 5 weeks
Method: as §1, §5
as §4, with “Total RNA from liver, intestine mucous membrane, adipose tissues, gastrocnemian muscle, pancreas and stomach were extracted with TRIzol reagent (Invitrogen, Carlsbad, USA) according to the manufacturer's instruction.” left out, “parentheses). […]” for “parentheses).”

[12] = tested on: Phosphoenolpyruvate carboxykinase (PEP CK); test: Real-time PCR gene expression in peripheral tissues: PepCK; conditions: liver; C57bl6j mice, high fat diet, 100 mg/kg/body weight in diet, 5 weeks
Method: as §1, §5
as §4, with “Total RNA from liver, intestine mucous membrane, adipose tissues, gastrocnemian muscle, pancreas and stomach were extracted with TRIzol reagent (Invitrogen, Carlsbad, USA) according to the manufacturer's instruction.” left out, “parentheses). […]” for “parentheses).”

[13] = tested on: Glucose 6-phosphatase (G6P); test: Real-time PCR gene expression in peripheral tissues: G6P; conditions: liver; C57bl6j mice, high fat diet, 100 mg/kg/body weight in diet, 5 weeks
Method: as §1, §5
as §4, with “Total RNA from liver, intestine mucous membrane, adipose tissues, gastrocnemian muscle, pancreas and stomach were extracted with TRIzol reagent (Invitrogen, Carlsbad, USA) according to the manufacturer's instruction.” left out, “parentheses). […]” for “parentheses).”

[14] = tested on: overall gene expression pattern; test: Multivariate statistical analysis of overall gene expression pattern; conditions: C57bl6j mice, high fat diet, 100 mg/kg/body weight in diet, 5 weeks
Method: as §1, §5
as §4, with “Total RNA from liver, intestine mucous membrane, adipose tissues, gastrocnemian muscle, pancreas and stomach were extracted with TRIzol reagent (Invitrogen, Carlsbad, USA) according to the manufacturer's instruction.” left out, “parentheses). […]” for “parentheses).”

For `CCCCCCCC/C=C\CCCCCCCC(=O)N[C@H](C)CO` [KDS 5104, (Z)—(R)-9-octadecenamide, N-(2-hydroxyethyl, 1-methyl)], the “adiponectin at ep, ratio of RNA levels relative to control mice” value ([1]; epidydimal adipose tissue) was −1.02, the “adiponectin at per, ratio of RNA levels relative to control mice” value ([1]; peritoneal adipose tissue) was −1.52 and the “ghrelin s, ratio of RNA levels relative to control mice” value [2] was 1.04. The “GPR119 i, ratio of RNA levels relative to control mice” value [3] was 4.95, the “PPAR α i, ratio of RNA levels relative to control mice” value [4] was 1.02 and the “CCK i, ratio of RNA levels relative to control mice” value [5] was 1.62. The “leptin at ep, ratio of RNA levels relative to control mice” value ([6]; epidydimal adipose tissue) was 1.35, the “leptin at per, ratio of RNA levels relative to control mice” value ([6]; peritoneal adipose tissue) was −1.32 and the “leptin s, ratio of RNA levels relative to control mice” value ([6]; stomach) was −1.02. For the same compound, the “CB1 at ep, ratio of RNA levels relative to control mice” value ([7]; epidydimal adipose tissue) was −1.48, the “CB1 at per, ratio of RNA levels relative to control mice” value ([7]; peritoneal adipose tissue) was −3.00 and the “CB1 i, ratio of RNA levels relative to control mice” value ([7]; proximal intestine) was −1.25. The “FAAH at ep, ratio of RNA levels relative to control mice” value ([8]; epidydimal adipose tissue) was 9.71, the “FAAH at per, ratio of RNA levels relative to control mice” value ([8]; peritoneal adipose tissue) was 3.82 and the “FAAH i, ratio of RNA levels relative to control mice” value ([8]; proximal intestine) was 1.28. For the same compound, the “NAAA at ep, ratio of RNA levels relative to control mice” value ([9]; epidydimal adipose tissue) was 1.38, the “NAAA at per, ratio of RNA levels relative to control mice” value ([9]; peritoneal adipose tissue) was 1.52 and the “NAAA i, ratio of RNA levels relative to control mice” value ([9]; proximal intestine) was 1.60. The “OEA synthase i, ratio of RNA levels relative to control mice” value [10] was −1.36, the “Glut 4 m, ratio of RNA levels relative to control mice” value [11] was 5.70 and the “PepCK l, ratio of RNA levels relative to control mice” value [12] was 1.55. The “G6P l, ratio of RNA levels relative to control mice” value [13] was 2.12 and the “overall gene expression pattern (multivariate statistical analysis)” value [14] was “significant shift”.
